Converted amounts (≈) assume the structure as drawn.
Experiments:
[1] = system: Enterococcus sp.; test: in vitro antibacterial evaluation, MIC by broth dilution; assay type: cell-based; conditions: broth dilution, 18 hours at 35° C.
Method in brief: (§1)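 Step 1: dilute antibiotic across 64-0.06 μg/mL in Muller-Hinton II […]. Step 2: inoculate at 5×10^5 CFU/mL.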

[2] = system: Staphylococcus sp.; test: as above; assay type: cell-based; conditions: broth dilution, 18 hours at 35° C.; for MIC Staphylococcus aureus (ATCC 29213): strain ATCC 29213; for MIC Staphylococcus aureus (GC 1131): strain GC 1131; for MIC Staphylococcus aureus (GC 3051): strain GC 3051; for MIC Staphylococcus aureus (GC 3053): strain GC 3053; for MIC Staphylococcus aureus (GC 4541): strain GC 4541; for MIC Staphylococcus aureus (GC 4542): strain GC 4542; for MIC Staphylococcus aureus-SMITH (GC 4543): strain GC 4543; for MIC Staphylococcus aureus (GC 4544): strain GC 4544; for MIC Staphylococcus aureus (GC 4545): strain GC 4545; for MIC Staphylococcus haemolyticus (GC 4546): strain GC 4546; for MIC Coagulase Negative Staphylococcus (GC 4547): strain GC 4547; for MIC Coagulase Negative Staphylococcus (GC 4548): strain GC 4548; for MIC Coagulase Negative Staphylococcus (GC 4549): strain GC 4549; for MIC Coagulase Negative Staphylococcus (GC 4551): strain GC 4551; for MIC Coagulase Negative Staphylococcus (GC 6257): strain GC 6257
Method in brief: as §1

[3] = system: Streptococcus sp.; test: as above; assay type: cell-based; conditions: broth dilution, 18 hours at 35° C.
Method in brief: as §1

[4] = anatomic pathology (histopathology of heart and kidney) in mice; assay type: in vivo; conditions: CD-1 mice, 20 mg/kg intravenously daily for 9 days, necropsy day 10, microscopic histopathology
Method: Samples of tissues from necropsied mice were formalin-fixed, paraffin-embedded, sectioned, stained with hematoxylin and eosin, and examined microscopically. Histopathologic findings were recorded. These findings were subjectively graded on a scale corresponding to slight, mild, moderate, marked and severe as compared to untreated controls.

[5] = system: Escherichia coli; test: in vitro antibacterial evaluation, MIC by broth dilution; assay type: cell-based; conditions: 18 hours at 35° C.
Method in brief: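 MIC is the lowest antibiotic concentration (tested 64-0.06 μg/mL) preventing growth of a 5×10^5 CFU/mL inoculum. Determined by broth dilution in Mueller-Hinton II medium following NCCLS standard M7-A2.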

[6] = Enterococcus faecalis (GC 4553)

CC(c1ccccc1)C1NC(=O)CNC(=O)C(CO)NC(=O)C(C(O)C2CN(Cc3ccc(C(=O)O)cc3)C(=N)N2C2OC(CO)C(O)C(O)C2O)NC(=O)C(C(O)C2CNC(=N)N2)NC(=O)C(Cc2ccc(OC3OC(CO)C(OC4OC(CO)C(O)C(O)C4O)C(O)C3O)cc2)NC1=O (stereo not drawn) [Example 69, Cyclo[glycyl-β-methylphenylalanyl-O-(4-O-hexopyranosylhexopyranosyl)tyrosyl-3-(2-iminoimidazolidin-4-yl)seryl-3-[1-(4-carboxybenzyl)-2-imino-3-hexopyranosylimidazolidin-4-yl]-serylseryl]]
MIC Enterococcus avium (GC 4558) ([1]; Enterococcus avium (GC 4558)): 128 µg/mL (≈ 89.5 µM)
MIC Enterococcus faecalis (ATCC 29212) ([1]; Enterococcus faecalis (ATCC 29212)): >128 µg/mL
MIC Enterococcus faecalis (GC 4552) ([1]; Enterococcus faecalis (GC 4552)): >128 µg/mL
MIC Enterococcus faecalis (GC 4553) [1, 6]: >128 µg/mL
MIC Enterococcus faecalis (GC 4554) ([1]; Enterococcus faecalis (GC 4554)): >128 µg/mL
MIC Enterococcus faecalis (GC 6189) ([1]; Enterococcus faecalis (GC 6189)): >128 µg/mL
MIC Enterococcus faecium (GC 2243) ([1]; Enterococcus faecium (GC 2243)): >128 µg/mL
MIC Enterococcus faecium (GC 4556) ([1]; Enterococcus faecium (GC 4556)): >128 µg/mL
MIC Enterococcus faecium (GC 4557) ([1]; Enterococcus faecium (GC 4557)): 128 µg/mL (≈ 89.5 µM)
MIC Enterococcus avium (GC 4558) [1]: 128 µg/mL (≈ 89.5 µM)
MIC Enterococcus faecalis (ATCC 29212) [1]: >128 µg/mL
MIC Enterococcus faecalis (GC 2242) [1]: >128 µg/mL
MIC Enterococcus faecalis (GC 2691) [1]: >128 µg/mL
MIC Enterococcus faecalis (GC 3059) [1]: >128 µg/mL
MIC Enterococcus faecalis (GC 4552) [1]: >128 µg/mL
MIC Enterococcus faecalis (GC 4553) [1]: >128 µg/mL
MIC Enterococcus faecalis (GC 4554) [1]: >128 µg/mL
MIC Enterococcus faecalis (GC 6189) [1]: >128 µg/mL
MIC Enterococcus faecium (GC 2243) [1]: >128 µg/mL
MIC Enterococcus faecium (GC 4556) [1]: >128 µg/mL
MIC Enterococcus faecium (GC 4557) [1]: 128 µg/mL (≈ 89.5 µM)
MIC Enterococcus faecalis (GC 2242) ([1]; strain GC 2242): >128 µg/mL
MIC Enterococcus faecalis (GC 2691) ([1]; strain GC 2691): >128 µg/mL
MIC Enterococcus faecalis (GC 3059) ([1]; strain GC 3059): >128 µg/mL
MIC Staphylococcus aureus (ATCC 29213) [2]: >128 µg/mL
MIC Staphylococcus aureus (GC 1131) [2]: >128 µg/mL
MIC Staphylococcus aureus (GC 3051) [2]: >128 µg/mL
MIC Staphylococcus aureus (GC 3053) [2]: >128 µg/mL
MIC Staphylococcus aureus (GC 4541) [2]: >128 µg/mL
MIC Staphylococcus aureus (GC 4542) [2]: >128 µg/mL
MIC Staphylococcus aureus-SMITH (GC 4543) [2]: >128 µg/mL
MIC Staphylococcus aureus (GC 4544) [2]: >128 µg/mL
MIC Staphylococcus aureus (GC 4545) [2]: >128 µg/mL
MIC Staphylococcus haemolyticus (GC 4546) [2]: >128 µg/mL
MIC Coagulase Negative Staphylococcus (GC 4547) [2]: >128 µg/mL
MIC Coagulase Negative Staphylococcus (GC 4548) [2]: >128 µg/mL
MIC Coagulase Negative Staphylococcus (GC 4549) [2]: >128 µg/mL
MIC Coagulase Negative Staphylococcus (GC 4551) [2]: >128 µg/mL
MIC Coagulase Negative Staphylococcus (GC 6257) [2]: >128 µg/mL
MIC Streptococcus agalactiae (GC 4564) [3]: 128 µg/mL (≈ 89.5 µM)
MIC Streptococcus pneumoniae (ATCC 6301) [3]: 128 µg/mL (≈ 89.5 µM)
MIC Streptococcus pneumoniae (GC 1894) [3]: 128 µg/mL (≈ 89.5 µM)
MIC Streptococcus pneumoniae (GC 4565) [3]: 128 µg/mL (≈ 89.5 µM)
MIC Streptococcus pyogenes (GC 4563) [3]: >128 µg/mL
MIC Streptococcus pneumoniae (ATCC 6301) ([3]; strain ATCC 6301): 128 µg/mL (≈ 89.5 µM)
MIC Streptococcus pneumoniae (GC 1894) ([3]; strain GC 1894): 128 µg/mL (≈ 89.5 µM)
MIC Streptococcus pyogenes (GC 4563) ([3]; strain GC 4563): >128 µg/mL
MIC Streptococcus agalactiae (GC 4564) ([3]; strain GC 4564): 128 µg/mL (≈ 89.5 µM)
MIC Streptococcus pneumoniae (GC 4565) ([3]; strain GC 4565): 128 µg/mL (≈ 89.5 µM)
Anatomical Pathology (Day 10), Heart [4]: 0
Anatomical Pathology (Day 10), Kidney [4]: 0
MIC Escherichia coli (ATCC 25922) [5]: >128 µg/mL
MIC Escherichia coli (GC 4559) [5]: >128 µg/mL
MIC Escherichia coli (GC 4560) [5]: >128 µg/mL

CC(c1ccccc1)C1NC(=O)CNC(=O)C(CO)NC(=O)C(C(O)C2CNC(=NCc3ccccc3)N2C2OC(CO)C(O)C(O)C2O)NC(=O)C(C(O)C2CNC(=N)N2)NC(=O)C(Cc2ccc(OC3OC(CO)C(OC4OC5COC6(OC5C(O)C4O)C4CC5CC(C4)CC6C5)C(O)C3O)cc2)NC1=O (stereo not drawn) [Example 76, Cyclo[glycyl-β-methylphenylalanyl-O-[4-O-[4,6-O-(2-adamantylidene)hexopyranosyl]hexopyranosyl]tyrosyl-3-(2-iminoimidazolidin-4-yl)seryl-3-[2-(benzylimino)-3-hexopyranosylimidazolidin-4-yl]serylseryl]]
MIC Enterococcus avium (GC 4558) ([1]; Enterococcus avium (GC 4558)): 2 to 8 µg/mL
MIC Enterococcus faecalis (GC 4553) [1, 6]: 4 to 8 µg/mL
MIC Enterococcus faecium (GC 2243) ([1]; Enterococcus faecium (GC 2243)): 2 to 8 µg/mL
MIC Enterococcus faecium (GC 4557) ([1]; Enterococcus faecium (GC 4557)): 1 to 2 µg/mL
MIC Enterococcus avium (GC 4558) [1]: 2 to 8 µg/mL
MIC Enterococcus faecalis (ATCC 29212) [1]: 4 to 16 µg/mL
MIC Enterococcus faecalis (GC 2242) [1]: 4 to 16 µg/mL
MIC Enterococcus faecalis (GC 2691) [1]: 4 to 16 µg/mL
MIC Enterococcus faecalis (GC 3059) [1]: 4 to 32 µg/mL
MIC Enterococcus faecalis (GC 4552) [1]: 4 to 16 µg/mL
MIC Enterococcus faecalis (GC 4553) [1]: 4 to 8 µg/mL
MIC Enterococcus faecalis (GC 4554) [1]: 4 to 32 µg/mL
MIC Enterococcus faecalis (GC 6189) [1]: 4 to 16 µg/mL
MIC Enterococcus faecium (GC 2243) [1]: 2 to 8 µg/mL
MIC Enterococcus faecium (GC 4556) [1]: 4 to 16 µg/mL
MIC Enterococcus faecium (GC 4557) [1]: 1 to 2 µg/mL
MIC Staphylococcus aureus (ATCC 29213) [2]: 2 to 8 µg/mL
MIC Staphylococcus aureus (GC 1131) [2]: 4 to 8 µg/mL
MIC Staphylococcus aureus (GC 3051) [2]: 2 to 8 µg/mL
MIC Staphylococcus aureus (GC 3053) [2]: 2 to 8 µg/mL
MIC Staphylococcus aureus (GC 4541) [2]: 2 to 4 µg/mL
MIC Staphylococcus aureus (GC 4542) [2]: 2 to 8 µg/mL
MIC Staphylococcus aureus-SMITH (GC 4543) [2]: 1 to 4 µg/mL
MIC Staphylococcus aureus (GC 4544) [2]: 4 to 8 µg/mL
MIC Staphylococcus aureus (GC 4545) [2]: 2 to 8 µg/mL
MIC Staphylococcus haemolyticus (GC 4546) [2]: 2 to 4 µg/mL
MIC Coagulase Negative Staphylococcus (GC 4547) [2]: 2 to 4 µg/mL
MIC Coagulase Negative Staphylococcus (GC 4548) [2]: 2 to 4 µg/mL
MIC Coagulase Negative Staphylococcus (GC 4549) [2]: 2 to 4 µg/mL
MIC Coagulase Negative Staphylococcus (GC 4551) [2]: 2 to 8 µg/mL
MIC Coagulase Negative Staphylococcus (GC 6257) [2]: 0.5 to 2 µg/mL
MIC Streptococcus agalactiae (GC 4564) [3]: 0.25 to 2 µg/mL
MIC Streptococcus pneumoniae (ATCC 6301) [3]: <0.12 to 1 µg/mL
MIC Streptococcus pneumoniae (GC 1894) [3]: <0.06 to 0.25 µg/mL
MIC Streptococcus pneumoniae (GC 4565) [3]: 0.25 to 4 µg/mL
MIC Streptococcus pyogenes (GC 4563) [3]: 0.25 to 2 µg/mL
Anatomical Pathology (Day 10), Heart [4]: 0
Anatomical Pathology (Day 10), Kidney [4]: ++
MIC Escherichia coli (GC 4560) [5]: 2 to 4 µg/mL

From patent US6914045B2, “Glycopeptide antibiotics” (Wyeth Holdings Corporation, priority 2001, dated 2005)
